Data taken from BindingDB's records for doi:10.1124/mol.53.2.195 (Suntory Institute For Bioorganic Research, 1998).

Key:
Glutamate receptor 3 = Glutamate receptor 3 (Rattus norvegicus, UniProt P19492)
[1] = target: Glutamate receptor ionotropic, kainate 1 (Rattus norvegicus, UniProt P22756)
[2] = target: Glutamate receptor ionotropic, NMDA 1 (Rattus norvegicus, UniProt P35439)

Glutamate receptor 3, sequence (P19492 whole entry): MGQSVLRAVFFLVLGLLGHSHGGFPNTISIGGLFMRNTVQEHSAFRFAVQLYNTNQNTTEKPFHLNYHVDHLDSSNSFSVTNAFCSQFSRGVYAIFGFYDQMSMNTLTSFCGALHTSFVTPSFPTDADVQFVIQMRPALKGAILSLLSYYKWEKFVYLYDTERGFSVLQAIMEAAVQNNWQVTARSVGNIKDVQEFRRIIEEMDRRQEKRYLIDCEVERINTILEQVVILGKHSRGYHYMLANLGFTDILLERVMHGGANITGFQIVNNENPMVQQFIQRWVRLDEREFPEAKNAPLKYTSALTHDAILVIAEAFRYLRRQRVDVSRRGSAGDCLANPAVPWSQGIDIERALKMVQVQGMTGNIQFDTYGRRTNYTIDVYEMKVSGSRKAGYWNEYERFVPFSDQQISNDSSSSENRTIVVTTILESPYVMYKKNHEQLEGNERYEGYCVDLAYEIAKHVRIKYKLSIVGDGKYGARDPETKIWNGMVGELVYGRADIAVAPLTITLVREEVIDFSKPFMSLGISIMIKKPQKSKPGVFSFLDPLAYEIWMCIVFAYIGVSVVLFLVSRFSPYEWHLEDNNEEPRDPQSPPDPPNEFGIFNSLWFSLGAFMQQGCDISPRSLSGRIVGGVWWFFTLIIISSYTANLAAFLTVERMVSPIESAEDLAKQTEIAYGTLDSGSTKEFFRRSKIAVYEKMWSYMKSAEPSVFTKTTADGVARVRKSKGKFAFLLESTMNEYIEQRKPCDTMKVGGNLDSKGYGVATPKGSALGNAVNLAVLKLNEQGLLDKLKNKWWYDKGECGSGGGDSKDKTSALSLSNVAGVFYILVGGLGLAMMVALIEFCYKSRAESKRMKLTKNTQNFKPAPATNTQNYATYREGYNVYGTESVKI
Glutamate receptor ionotropic, kainate 1, sequence (P22756 whole entry): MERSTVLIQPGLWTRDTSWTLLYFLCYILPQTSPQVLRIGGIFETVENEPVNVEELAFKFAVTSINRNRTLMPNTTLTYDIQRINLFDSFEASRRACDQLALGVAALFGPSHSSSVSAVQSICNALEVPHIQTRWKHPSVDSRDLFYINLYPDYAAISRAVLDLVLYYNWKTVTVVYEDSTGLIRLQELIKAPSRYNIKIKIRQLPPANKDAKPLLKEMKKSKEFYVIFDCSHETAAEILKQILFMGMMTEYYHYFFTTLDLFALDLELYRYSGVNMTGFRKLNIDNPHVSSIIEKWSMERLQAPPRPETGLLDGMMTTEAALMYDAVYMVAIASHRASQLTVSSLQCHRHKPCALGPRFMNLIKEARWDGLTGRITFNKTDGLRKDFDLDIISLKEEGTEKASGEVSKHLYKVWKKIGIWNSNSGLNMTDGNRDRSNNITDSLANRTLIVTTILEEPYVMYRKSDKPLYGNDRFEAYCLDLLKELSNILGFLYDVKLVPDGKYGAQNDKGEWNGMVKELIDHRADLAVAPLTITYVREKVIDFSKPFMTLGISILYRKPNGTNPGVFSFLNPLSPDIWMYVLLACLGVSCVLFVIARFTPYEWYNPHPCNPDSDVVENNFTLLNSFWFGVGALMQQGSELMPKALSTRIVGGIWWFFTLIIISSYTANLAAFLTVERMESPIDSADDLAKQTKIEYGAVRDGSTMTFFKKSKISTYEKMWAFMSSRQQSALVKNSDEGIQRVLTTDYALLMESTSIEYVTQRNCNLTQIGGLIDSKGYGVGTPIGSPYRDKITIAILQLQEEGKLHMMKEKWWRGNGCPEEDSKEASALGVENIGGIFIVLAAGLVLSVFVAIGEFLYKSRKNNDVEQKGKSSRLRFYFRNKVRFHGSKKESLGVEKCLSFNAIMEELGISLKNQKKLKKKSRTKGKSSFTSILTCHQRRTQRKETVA

Row | Structure (SMILES) | Ki (Glutamate receptor 3) [µM] | Ki [1] [µM] | Ki [2] [µM]
1 | N[C@H](C(=O)O)[C@H](OC(=O)c1ccccc1)C(=O)O (racemic) [DL-TBzOAsp] | > 10 | > 10 | > 10
2 | N[C@H](C(=O)O)[C@H](O)C(=O)O (racemic) [DL-THA] | > 10 | > 10 | > 10
3 | N[C@H](C(=O)O)[C@H](OCc1ccccc1)C(=O)O [DL-TBOA] | > 10 | > 10 | > 10
4 | N[C@H](C(=O)O)[C@H]1C[C@H]1C(=O)O [L-CCG-IV] | – | – | 0.008
5 | CN[C@H](CC(=O)O)C(=O)O [NMDA] | – | – | 5.5
6 | CC(C)[C@H]1CN[C@H](C(=O)O)[C@H]1CC(=O)O [dihydrokainic acid] | > 10 | 6 | > 10
7 | O=C(O)[C@H]1CN[C@H](C(=O)O)C1 [t-PDC] | > 10 | > 10 | > 10
